According to patent US10787442B2, “Modulators of indoleamine 2,3-dioxygenase” (GLAXOSMITHKLINE INTELLECTUAL PROPERTY DEVELOPMENT LIMITED, priority 2016, dated 2020):

System: human peripheral blood mononuclear cells (PBMC)
Assay: PBMC cytotoxicity assay (CellTiter-Glo)
Assay type: cell-based
Conditions: cytotoxicity in stimulated PBMC, recorded as pCC50
Protocol: Compounds of the present invention were tested via high-throughput cellular assays utilizing detection of kynurenine via mass spectrometry and cytotoxicity as end-points. […] Compounds with IDO1 inhibitory properties decreased the amount of kynurenine produced by the cells via the tryptophan catabolic pathway. Cellular toxicity due to the effect of compound treatment was measured using CellTiter-Glo® reagent (CTG) (Promega Corporation, Madison, Wis.), which is based on luminescent detection of ATP, an indicator of metabolically active cells.
In preparation for the assays, test compounds were serially diluted 3-fold in DMSO from a typical top concentration of 1 mM or 5 mM and plated at 0.5 μL in 384-well, polystyrene, clear bottom, tissue culture treated plates with lids (Greiner Bio-One, Kremsmünster, Austria) to generate 11-point dose response curves. Low control wells (0% kynurenine or 100% cytotoxicity) contained either 0.5 μL of DMSO in the presence of unstimulated (−IFN-γ/−LPS) PBMCs for the mass spectrometry assay or 0.5 μL of DMSO in the absence of cells for the cytotoxicity assay, and high control wells (100% kynurenine or 0% cytotoxicity) contained 0.5 μL of DMSO in the presence of stimulated (+IFN-γ/+LPS) PBMCs for both the mass spectrometry and cytotoxicity assays.
Frozen stocks of PBMCs were washed and recovered in RPMI 1640 medium (Thermo Fisher Scientific, Inc., Waltham, Mass.) supplemented with 10% v/v heat-inactivated fetal bovine serum (FBS) (Thermo Fisher Scientific, Inc., Waltham, Mass.), and 1× penicillin-streptomycin antibiotic solution (Thermo Fisher Scientific, Inc., Waltham, Mass.). The cells were diluted to 1,000,000 cells/mL in the supplemented RPMI 1640 medium. 50 μL of either the cell suspension, for the mass spectrometry assay, or medium alone, for the cytotoxicity assay, were added to the low control wells, on the previously prepared 384-well compound plates, resulting in 50,000 cells/well or 0 cells/well respectively. IFN-γ and LPS were added to the remaining cell suspension at final concentrations of 100 ng/ml and 50 ng/ml respectively, and 50 μL of the stimulated cells were added to all remaining wells on the 384-well compound plates. The plates, with lids, were then placed in a 37° C., 5% CO2 humidified incubator for 2 days.
Following incubation, the 384-well plates were removed from the incubator and allowed to equilibrate to room temperature for 30 minutes. For the cytotoxicity assay, CellTiter-Glo® was prepared according to the manufacturer's instructions, and 40 μL were added to each plate well. After a twenty minute incubation at room temperature, luminescence was read on an EnVision® Multilabel Reader (PerkinElmer Inc., Waltham, Mass.). For the mass spectrometry assay, 10 μL of supernatant from each well of the compound-treated plates were added to 40 μL of acetonitrile, containing 10 μM of an internal standard for normalization, in 384-well, polypropylene, V-bottom plates (Greiner Bio-One, Kremsmünster, Austria) to extract the organic analytes. Following centrifugation at 2000 rpm for 10 minutes, 10 μL from each well of the acetonitrile extraction plates were added to 90 μL of sterile, distilled H2O in 384-well, polypropylene, V-bottom plates for analysis of kynurenine and the internal standard on the RapidFire 300 (Agilent Technologies, Santa Clara, Calif.) and 4000 QTRAP MS (SCIEX, Framingham, Mass.). MS data were integrated using Agilent Technologies' RapidFire Integrator software, and data were normalized for analysis as a ratio of kynurenine to the internal standard.

Structure (SMILES) | PBMC_TOX PXC50
CO[C@H]1CC[C@@H](N(CC(C)C)c2ncc([C@H](C)CC(=O)O)cc2Nc2ccc(C#N)cn2)CC1 [Example 25, (R)-3-(5-((5-cyanopyridin-2-yl)amino)-6-(isobutyl((1s,4S)-4-methoxycyclohexyl)amino)pyridin-3-yl)butanoic acid] | <5.0
COC1CCC(N(CC(C)C)c2ncc(C(C)CC(=O)O)cc2Nc2nc(Cl)ns2)CC1 (stereo not drawn) [Example 46, (3RS)-3-{5-[(3-chloro-1,2,4-thiadiazol-5-yl)amino]-6-[(2-methylpropyl)[(1rs&,4rs&)-4-methoxycyclohexyl]amino]pyridin-3-yl}butanoic acid] | <5.0
CC(C)CN(c1ncc([C@H](C)CC(=O)O)cc1Nc1nc(C(F)(F)F)ns1)C1CCCCC1 [Example 11, (R)-3-(6-(cyclohexyl(isobutyl)amino)-5-((3-(trifluoromethyl)-1,2,4-thiadiazol-5-yl)amino)pyridin-3-yl)butanoic acid] | <5.0
COCc1nsc(Nc2cc([C@H](C)CC(=O)O)cnc2N(CC(C)C)C2CCCCC2)n1 [Example 15, (R)-3-(6-(cyclohexyl(isobutyl)amino)-5-((3-(methoxymethyl)-1,2,4-thiadiazol-5-yl)amino)pyridin-3-yl)butanoic acid] | <5.5
COC(=O)c1c[nH]c(Nc2cc([C@H](C)CC(=O)O)cnc2N(CC(C)C)C2CCOCC2)n1 [Example 50, (3R)-3-(5-{[4-(methoxycarbonyl)-1H-imidazol-2-yl]amino}-6-[(2-methylpropyl)(oxan-4-yl)amino]pyridin-3-yl)butanoic acid] | <5.0
CC(C)CN(CCC(F)(F)F)c1ncc([C@H](C)CC(=O)O)cc1Nc1ccc(Cl)cn1 [Example 76, (3R)-3-{5-[(5-chloropyridin-2-yl)amino]-6-[(2-methylpropyl)(3,3,3-trifluoropropyl)amino]pyridin-3-yl}butanoic acid] | <5.0
CC(C)CN(c1ncc([C@H](C)CC(=O)O)cc1Nc1nc(Cl)ns1)C1CCOCC1 [Example 39, (3R)-3-{5-[(3-chloro-1,2,4-thiadiazol-5-yl)amino]-6-[(2-methylpropyl)(oxan-4-yl)amino]pyridin-3-yl}butanoic acid] | <5.0
CO[C@H]1CC[C@@H](N(CC(C)C)c2ncc([C@H](C)CC(=O)O)cc2Nc2nc(Cl)ns2)CC1 [Example 21, (R)-3-(5-((3-chloro-1,2,4-thiadiazol-5-yl)amino)-6-(isobutyl((1s,4S)-4-methoxycyclohexyl)amino)pyridin-3-yl)butanoic acid] | <5.0
CC(C)CN(c1ncc([C@H](C)CC(=O)O)cc1Nc1cnc(C#N)nc1)C1CCOCC1 [Example 65, (3R)-3-{5-[(2-cyanopyrimidin-5-yl)amino]-6-[(2-methylpropyl)(oxan-4-yl)amino]pyridin-3-yl}butanoic acid] | <5.0
CC(C)CN(c1ncc([C@H](C)CC(=O)O)cc1Nc1nc(Cl)ns1)C1CC(F)(F)C1 [Example 81] | <5.0
CO[C@H]1CC[C@H](N(CC(C)C)c2ncc([C@H](C)CC(=O)O)cc2Nc2ccc(Cl)cn2)CC1 [Example 27, (R)-3-(5-((5-chloropyridin-2-yl)amino)-6-(isobutyl((1r,4R)-4-methoxycyclohexyl)amino)pyridin-3-yl)butanoic acid] | <5.0
CC(C)CN(c1ncc([C@H](C)CC(=O)O)cc1Nc1ccc(C(F)(F)F)cn1)C1CCOCC1 [Example 52, (3R)-3-{6-[(2-methylpropyl)(oxan-4-yl)amino]-5-{[5-(trifluoromethyl)pyridin-2-yl]amino}pyridin-3-yl}butanoic acid] | <5.0
CC(C)CN(c1cnc([C@H](C)CC(=O)O)cc1Nc1ccc(Cl)cn1)C1CCOCC1 [Example 82, (3R)-3-{4-[(5-chloropyridin-2-yl)amino]-5-[(2-methylpropyl)(oxan-4-yl)amino]pyridin-2-yl}butanoic acid] | <5.0
CC(C)CN(c1ncc([C@H](C)CC(=O)NS(C)(=O)=O)cc1Nc1ccc(Cl)cn1)C1CCOCC1 [Example 79, (3R)-3-{5-[(5-chloropyridin-2-yl)amino]-6-[(2-methylpropyl)(oxan-4-yl)amino]pyridin-3-yl}-N-methanesulfonylbutanamide] | <5.0
CC(C)CN(c1ncc([C@H](C)CC(=O)O)cc1Nc1nc(C(F)(F)F)c[nH]1)C1CCOCC1 [Example 48, (3R)-3-{6-[(2-methylpropyl)(oxan-4-yl)amino]-5-{[4-(trifluoromethyl)-1H-imidazol-2-yl]amino}pyridin-3-yl}butanoic acid] | <5.0
CNC(=O)c1nnc(Nc2cc([C@H](C)CC(=O)O)cnc2N(CC(C)C)C2CCCCC2)s1 [Example 64, (3R)-3-{6-[cyclohexyl(2-methylpropyl)amino]-5-{[5-(methylcarbamoyl)-1,3,4-thiadiazol-2-yl]amino}pyridin-3-yl}butanoic acid] | <5.0
COCc1ccc(Nc2cc([C@H](C)CC(=O)O)cnc2N(CC(C)C)[C@H]2CC[C@@H](OC)CC2)nc1 [Example 58, (3R)-3-(5-{[5-(methoxymethyl)pyridin-2-yl]amino}-6-[(2-methylpropyl)[(1s,4s)-4-methoxycyclohexyl]amino]pyridin-3-yl)butanoic acid] | <5.0
CC(C)CN(c1ncc([C@H](C)CC(=O)O)cc1Nc1ccc(Cl)c(Cl)n1)C1CCOCC1 [Example 68, (3R)-3-{5-[(5,6-dichloropyridin-2-yl)amino]-6-[(2-methylpropyl)(oxan-4-yl)amino]pyridin-3-yl}butanoic acid] | <5.0
CC(C)CN(c1ncc([C@H](C)CC(=O)O)cc1Nc1n[nH]c(C#N)n1)C1CCOCC1 [Example 43, (3R)-3-{5-[(5-cyano-1H-1,2,4-triazol-3-yl)amino]-6-[(2-methylpropyl)(oxan-4-yl)amino]pyridin-3-yl}butanoic acid] | <5.0
Cc1nc(Nc2cc([C@H](C)CC(=O)O)cnc2N(CC(C)C)C2CCOCC2)ccc1Cl [Example 69, (3R)-3-{5-[(5-chloro-6-methylpyridin-2-yl)amino]-6-[(2-methylpropyl)(oxan-4-yl)amino]pyridin-3-yl}butanoic acid] | <5.0
CC(C)CN(c1ncc([C@H](C)CC(=O)O)cc1Nc1ccc(Cl)cn1)C1CCC(F)(F)CC1 [Example 18, (R)-3-(5-((5-chloropyridin-2-yl)amino)-6-((4,4-difluorocyclohexyl) (isobutyl)amino)pyridin-3-yl)butanoic acid] | <5.0
Cc1cc(NC(=O)Nc2cc([C@H](C)CC(=O)O)cnc2N(CC(C)C)C2CC3(C2)CN(C(=O)OC(C)(C)C)C3)on1 [Example 61, (3R)-3-[6-({2-[(tert-butoxy)carbonyl]-2-azaspiro[3.3]heptan-6-yl}(2-methylpropyl)amino)-5-{[(3-methyl-1,2-oxazol-5-yl)carbamoyl]amino}pyridin-3-yl]butanoic acid] | <5.0
CC(C)CN(c1ncc([C@H](C)CC(=O)O)cc1Nc1nnc(C2CC2)s1)C1CCOCC1 [Example 38, (3R)-3-{5-[(5-cyclopropyl-1,3,4-thiadiazol-2-yl)amino]-6-[(2-methylpropyl)(oxan-4-yl)amino]pyridin-3-yl}butanoic acid] | <5.0
CC(C)CN(c1ncc([C@H](C)CC(=O)O)cc1Nc1nnc(C(N)=O)s1)C1CCCCC1 [Example 63, (3R)-3-{5-[(5-carbamoyl-1,3,4-thiadiazol-2-yl)amino]-6-[cyclohexyl(2-methylpropyl)amino]pyridin-3-yl}butanoic acid] | <5.0
CC(C)CN(c1ncc([C@H](C)CC(=O)O)cc1Nc1ccc(Cl)cn1)C1CC(F)(F)C1 [Example 75, (3R)-3-{5-[(5-chloropyridin-2-yl)amino]-6-[(3,3-difluorocyclobutyl)(2-methylpropyl)amino]pyridin-3-yl}butanoic acid] | <5.0
